Among the data in PubChem BioAssay AID1645865 (Buhrlage Lab, Dana-Farber Cancer Institute and Novartis …, 2021) are IC50 values, retold here.

In the experiment the target is Ubiquitin carboxyl-terminal hydrolase 30 (Homo sapiens) (UniProt Q70CQ3). Nature of the experiment: ubiquitin-specific protease 30 DUB inhibitors, concentration-effect, biochemical, validation of primary actives (AID 1645865). The note with it: purified USP30, Ub-rhodamine cleavage, fluorescence, 2 h.

What is called IC50 is the midpoint of a concentration-inhibition curve.

SMILES strings stand for the structures. The source made the active and inactive calls.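 The calls were made as follows: active = maximal inhibition of the USP30 enzyme reaching 30% or more across the dose series; inactive = the rest.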

Chain of Ubiquitin carboxyl-terminal hydrolase 30 (Homo sapiens) (Q70CQ3 whole entry, looked up): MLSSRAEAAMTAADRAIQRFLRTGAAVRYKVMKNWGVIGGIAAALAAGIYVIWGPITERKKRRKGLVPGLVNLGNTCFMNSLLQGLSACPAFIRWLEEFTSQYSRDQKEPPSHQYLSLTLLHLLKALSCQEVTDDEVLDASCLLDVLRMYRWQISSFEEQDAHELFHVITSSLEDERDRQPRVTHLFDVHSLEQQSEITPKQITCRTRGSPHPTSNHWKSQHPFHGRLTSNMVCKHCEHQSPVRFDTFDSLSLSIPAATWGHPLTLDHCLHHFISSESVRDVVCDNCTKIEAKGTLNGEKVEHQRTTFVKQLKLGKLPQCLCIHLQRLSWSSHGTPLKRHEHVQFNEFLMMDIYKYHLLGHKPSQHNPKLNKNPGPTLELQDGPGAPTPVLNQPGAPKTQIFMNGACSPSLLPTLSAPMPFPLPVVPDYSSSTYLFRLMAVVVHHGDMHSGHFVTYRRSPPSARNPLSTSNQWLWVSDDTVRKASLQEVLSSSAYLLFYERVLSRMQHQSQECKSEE

In the case of `O=C(NCc1ccc2c(c1)OCO2)c1ccc(C2SCC(=O)N2Cc2ccco2)cc1` (stereo not drawn), the IC50 is > 50 µM (inactive).
As for `Cc1ccc(-n2nc(C)c3c2NC(=O)CC3C(=O)c2cc3ccccc3o2)cc1C` (stereo not drawn), the IC50 was > 50 µM (inactive).
Consider `COc1ccccc1-c1nc(-c2cn(-c3ccc(C)cc3)nn2)no1`, for which the IC50 was 6.47 µM.
As for `Cc1cnnn1-c1ccc(C(=O)Nc2cc(Cl)ccc2Cl)cc1`, the figure is 20.7 µM; as for `CNC(=O)c1cc2nc(N(C)C)n(-c3ccc(F)cc3)c2s1`, > 50 µM (inactive).
As to `CCc1nc(N2CCCC2=O)sc1C(=O)Nc1cccc(C(C)=O)c1`, the IC50 is > 50 µM (inactive).
With `COc1ccc(-c2cc(N3CCC(NC(=O)c4ccccc4)C3)n[nH]2)cc1` (stereo not drawn), the IC50 is 19.8 µM.
As for `C[C@H](NC(=O)Cc1ccccc1F)c1nc2cc(-c3ccccc3F)ncn2n1`, the figure is > 50 µM (inactive); as for `Cc1cc(N2CCN(c3ncccn3)CC2)nc2ccc(NC(=O)c3ccncc3)cc12`, 2.68 µM; as for `N#Cc1ccccc1COC(=O)c1ccc2ccccc2n1`, > 50 µM (inactive).
Turning to `COCCCNC(=O)c1ccc(Cn2c(=O)c3ccccc3n(CC(=O)Nc3ccc(OC)cc3)c2=O)cc1`, the IC50 is 23.9 µM.
On to `COc1c2c(cc3cc(O)c4c(=O)cc(C)oc4c13)CCC2=O`, for which the IC50 is > 50 µM (inactive).
The same measure for `N#Cc1c(N)nc2c(c1N)C(c1ccccc1)CO2` (stereo not drawn): 42.8 µM.
For the compound `O=C(Nc1ccc2c(c1)N(C(=O)C1CCCC1)CC2)c1c(F)cccc1F`, the IC50 was 24.2 µM.
The same measure for `O=C(COC(=O)c1n[nH]c2ccccc12)Nc1ccc(N2CCCCC2)cc1`: 34.9 µM.
The same measure for `CN(C(=O)CSc1nnc(-c2cc3ccccc3n2C)o1)c1ccccc1`: > 50 µM (inactive); for `COC(=O)c1ccc(Cn2cnc3ccc(F)cc3c2=O)o1`: > 50 µM (inactive).
Turning to `CCn1ccc2c(cc(C(=O)Nc3cccc(OC)c3)n2C)c1=O`, the IC50 was > 50 µM (inactive).
Turning to `CNc1nc2c(c(=O)n1Cc1ccccc1)CN(C(=O)c1ccc(CN)cc1)CC2`, the IC50 is 42.8 µM.
Regarding `COc1ccc(NC2c3ccccc3C(=O)N2c2ccccn2)cc1` (stereo not drawn), the IC50 is > 50 µM (inactive).
Consider `CC(=O)c1ccc(NC(=O)c2nc3ccccc3nc2N2CCOCC2)cc1`, for which the IC50 was > 50 µM (inactive).
The same measure for `O=C(NCc1ccc(F)cc1)c1cc(-n2cnnn2)ccc1Cl`: 21.3 µM.
With `COc1ccc(NC(=O)CN2C(=O)c3ccccc3Sc3ccc(C(=O)N4CCCC4)cc32)c(OC)c1`, the IC50 is > 50 µM (inactive).
`Cc1ccc(C)c(Nc2cc(C)nc3nc(-c4ccco4)nn23)c1`: the IC50 is > 50 µM (inactive).
With `O=C(CC(C(=O)Nc1ccc2c(c1)OCO2)C(=O)c1ccccc1)Nc1ccc(Cl)cc1F` (stereo not drawn), the IC50 was 2.61 µM.
As to `CCn1cc(-c2nc(-c3ccccc3)no2)c(=O)c2cc(F)ccc21`, the IC50 was 2.18 µM.
With `Cc1ccc(NC(=O)c2c3c(nc4ccccc24)CCCCC3)c(C)c1`, the IC50 is > 50 µM (inactive).
On to `Cc1ccc(CNC(=O)CCCn2c(=O)c3sccc3n(CC(=O)OCc3ccccc3)c2=O)cc1`, for which the IC50 was 2 µM.
On to `Cc1ccc2c(c1)N=C(c1ccc([N+](=O)[O-])cc1)CO2`, for which the IC50 was > 50 µM (inactive).
As for `COc1ccc(-n2c(SCC(=O)c3ccc(F)cc3)nnc2-c2cccnc2)cc1`, the IC50 is 21.9 µM.
In the case of `Cn1ccc2c(cc(C(=O)NCCC3=CCCCC3)n2C)c1=O`, the IC50 is > 50 µM (inactive).
As for `CN1CCN(C(=O)c2ccn(-c3ccc4ccc(-c5cnn(C)c5)cn34)n2)CC1`, the figure is > 50 µM (inactive).
With `CC(=O)c1cccc(NC(=O)c2ccc(-c3csc(C)n3)cc2)c1`, the IC50 was > 50 µM (inactive).
Turning to `Cc1ccc(-n2c(-c3ccccc3)cn3c4c(=O)[nH]c(=O)n(C)c4nc23)cc1Cl`, the IC50 was 0.222 µM.
As to `CCOc1ccccc1NC(=O)Cn1c(-c2ccc3c(c2)OCO3)cn(-c2ccc(OC)cc2)c1=O`, the IC50 is > 50 µM (inactive).
Take `Cc1ccc(-c2nc(Cn3nnc(-c4nc(-c5ccccn5)no4)c3C)c(C)o2)cc1`: the IC50 is > 50 µM (inactive).
Take `O=C(/C=C/c1c(F)cccc1Cl)N1CCc2ccccc2C1`: the IC50 was > 50 µM (inactive).
`COC(=O)c1ccc2c(=O)n(CCCCCC(=O)NCc3cccc(Cl)c3)c(=O)[nH]c2c1`: the IC50 was 1.69 µM.
As to `Cc1sc(-c2cccnc2)nc1OC(=O)c1ccc(Cl)c(Cl)c1`, the IC50 was > 50 µM (inactive).
As to `Cc1ccccc1NC(=O)CNc1nc(Nc2ccccc2)nc(Nc2ccccc2)n1`, the IC50 was 26.4 µM.
Consider `O=C(COc1nsnc1N1CCOCC1)Nc1ccc(F)c(F)c1`, for which the IC50 is > 50 µM (inactive).
With `COc1ccccc1CNC(=O)c1c(O)c2cnn(-c3cccc(C)c3)c2[nH]c1=O`, the IC50 is > 50 µM (inactive).
`O=C(CNc1nc(Nc2ccccc2F)nc(Nc2ccccc2F)n1)Nc1ccccc1`: the IC50 was 33.4 µM.
As for `O=[N+]([O-])c1ccc2c(c1)nc1n2CCN(Cc2ccco2)C1`, the figure is > 50 µM (inactive); as for `Fc1ccc(CN2CCc3nc4cccnc4cc3C2)cc1`, > 50 µM (inactive); as for `Cc1cc(C)n(-c2ccc(C(=O)Nc3cccc(S(=O)(=O)N4CCCC4)c3)cc2)n1`, 9.63 µM.
As for `Cc1ccc2c(c1)N(Cc1nc(-c3ccc(F)cc3)no1)C(=O)CO2`, the figure is > 50 µM (inactive); as for `O=C(Cn1cncc(-c2nc(-c3ccccc3)cs2)c1=O)NC1CCCC1`, 34.5 µM; as for `COc1cccc(NC(=O)c2cnc3c(c2)c(=O)n(C)c(=O)n3C)c1`, 2.05 µM.
On to `CC(=O)c1ccc(Cc2ncc(C(F)(F)F)cc2Cl)s1`, for which the IC50 is > 50 µM (inactive).
For the compound `O=C(OC1CSc2nc3ccccc3n2C1)c1ccc([N+](=O)[O-])o1` (stereo not drawn), the IC50 is 43.1 µM.
For the compound `CN[C@H]1CC2(CCN(C(=O)CCCn3cccn3)CC2)OC[C@]1(C)O`, the IC50 was > 50 µM (inactive).
As for `Clc1cncc(Oc2nc(-c3cccnc3)nc3ccccc23)c1`, the figure is 2.09 µM; as for `O=S(=O)(O)c1cc2cc3ccccc3cc2[nH]1`, > 50 µM (inactive); as for `Cc1ccc(NC(=O)CCC(=O)Nc2ccc3nc(N4CCCCC4)cc(C)c3c2)c(Br)c1`, 36.4 µM.
As for `COc1ccccc1-c1nc2c3c(ncn2n1)Oc1c(c(C)nn1-c1ccccc1)C3c1cccnc1` (stereo not drawn), the figure is 2.85 µM; as for `N#Cc1ccc(Cn2nnc(-c3cccc(Cl)c3)n2)cc1`, > 50 µM (inactive).
As to `COc1cccc(N2CCN(C(=O)CCNS(=O)(=O)c3ccc4c(c3)CCC(=O)N4)CC2)c1`, the IC50 is > 50 µM (inactive).
Regarding `COc1cc(Cl)ccc1Nc1ncc(C(=O)Nc2cc(OC)c(OC)c(OC)c2)c2ccccc12`, the IC50 is < 0.05 µM.
`Cc1cccc(NC(=O)c2nc(N3CCSCC3)c3cnn(C)c3n2)c1`: the IC50 was > 50 µM (inactive).
`O=C(NC1CCN(Cc2ccccc2)CC1)c1[nH]nc2c1COc1ccccc1-2`: the IC50 is > 50 µM (inactive).
As to `CC(C)(C)c1ccc(-c2nnc3n2-c2ccccc2SC3)cc1`, the IC50 is 19.1 µM.
The same measure for `O=C(NCc1ccc(Cl)cc1)Nc1cccc2ccccc12`: 25.3 µM; for `CCc1c(C)c(C#N)c2nc3ccccc3n2c1N1CCN(C2CCCC2)CC1`: 1.7 µM.
Regarding `Cc1c(-c2nnc(-c3ccccn3)o2)nnn1-c1cccc(Cl)c1`, the IC50 is 44.4 µM.
For the compound `O=c1c2ccccc2oc2nc(-c3cccs3)n(-c3ccccc3)c(=O)c12`, the IC50 is 2.42 µM.
Turning to `COc1ncccc1CN1CCn2c(Cn3cccn3)cnc2C1C` (stereo not drawn), the IC50 is > 50 µM (inactive).
Regarding `O=C(Nc1ccccc1)c1cn2c3c(cccc3c1=O)CC2`, the IC50 is > 50 µM (inactive).
With `Cn1c(=O)c2c(nc3n(-c4ccccc4F)c(-c4ccccc4)cn23)n(C)c1=O`, the IC50 is > 50 µM (inactive).
The same measure for `FC(F)(F)c1cccc(CSc2ccc3nnc(-c4ccccn4)n3n2)c1`: 14.9 µM.
`O=C(Nc1nc2ccccc2s1)c1ccc2c(c1)C(=O)N(Cc1cccnc1)C2=O`: the IC50 was 2.19 µM.
For the compound `COc1ccc(CCNC(=O)c2cc(C3CC3)nc3c2cnn3C(C)C)cc1`, the IC50 was > 50 µM (inactive).
As for `O=c1c(OC2O[C@H](CO)[C@H](O)[C@H](O)[C@H]2O)c(-c2ccc(O)cc2)oc2cc(O)cc(O)c12` (stereo partly drawn), the figure is > 50 µM (inactive); as for `COc1ccc(C2SCC(=O)Nc3c2c(=O)[nH]n3C2CCCCC2)cc1` (stereo not drawn), 30.1 µM; as for `COc1ccc(C)cc1NC(=O)C(NS(=O)(=O)c1ccc2c(c1)CCN2C(C)=O)C(C)C` (stereo not drawn), > 50 µM (inactive).
As to `O=C1/C(=C/c2cn(-c3ccccc3)nc2-c2ccc3c(c2)OCCO3)Cc2ccccc21`, the IC50 was > 50 µM (inactive).
Turning to `CC1(C)CC2CC(C)(CN2Cc2c(O)ccc3ccccc23)C1` (stereo not drawn), the IC50 is > 50 µM (inactive).
As to `Cc1sc(NC(=O)CNc2ccccc2)nc1-c1ccc2c(c1)CCN2C(=O)C(C)C`, the IC50 was > 50 µM (inactive).
For the compound `O=C(NCc1nc(-c2ccc3c(c2)[nH]c(=O)n3C2CCCC2)no1)c1ccccc1`, the IC50 was > 50 µM (inactive).
On to `Cc1ccccc1NC(=O)Nc1ccccc1OCc1cc(=O)n2cccc(C)c2n1`, for which the IC50 is 0.687 µM.
The same measure for `O=C(NCc1cccnc1)c1cnn2c(C(F)(F)F)cc(-c3ccc(F)cc3)nc12`: 23.3 µM; for `N#Cc1ccccc1OCc1csc(-c2ccccc2)n1`: > 50 µM (inactive).
Regarding `CC(C)OC(=O)c1cc2c(ccn2C)n1CC(=O)N1CCN(C(=O)c2ccco2)CC1`, the IC50 is > 50 µM (inactive).
As to `Cc1cccc(NC(=O)CN2C(=O)COc3cc(S(=O)(=O)N4CCCC4)ccc32)c1C`, the IC50 was 21.4 µM.
As for `O=C(c1ccc(N2CCc3ccccc32)nn1)N1CCc2ccccc21`, the IC50 is > 50 µM (inactive).
`Fc1cccc(Cn2cc(-c3noc(-c4ccncc4)n3)nn2)c1`: the IC50 is 22.8 µM.
For the compound `CCOC(=O)c1cccc(NC(=O)Nc2cccn3nc(C)nc23)c1`, the IC50 is > 50 µM (inactive).
Consider `Cc1ncncc1C(=O)N1CCCC(C)(c2ncc(Cc3cccc(F)c3)o2)C1` (stereo not drawn), for which the IC50 is > 50 µM (inactive).
